Columns and labels:
[1] = esterase dependent hydrolysis: incubation in fresh rat plasma, LC-MS/MS determination of parent compound, MNAF and MNA; settings: for release of intermediate compound MNAF / rate of hydrolysis (property depending on structure): group property, matrix not given; for hydrolysis of parent compound during plasma incubation: fresh rat plasma, 37°C, incubation 120 min
[2] = hydrolytic stability in solution: incubation in PBS buffer, LC-MS/MS determination of parent compound, MNAF and MNA; assay type: physicochemical; settings: 37°C, incubation 120 min
Method: The invention also concerns the method of releasing N1-methylnicotinamide (MNA), which is characterized by the following steps: pyridine salts derivatives, as defined above, are incubated in a shaking water bath at 37°C for 120 minutes, then samples are taken 1, 5, 15, 30, 60, 90 and 120 minutes after the start of incubation, by taking 50 µL of a sample to which 500 µL of acetonitrile cooled to -20°C was added to interrupt the hydrolysis reaction, then samples were cooled for 20 minutes at 4°C for protein precipitation, and then centrifuged under the following conditions: 4°C, 15,000 x rpm, 15 min, and the supernatant was transferred to separate chromatographic tubes and 5 µL was applied to the chromatographic column. Preferably, when MNA release is studied in PBS buffer - testing hydrolytic stability in solution and/or in rat plasma - additionally testing plasma esterase-dependent hydrolysis.
For that purpose, the studied compounds were incubated: (1) in PBS buffer - testing hydrolytic stability in solution; (2) in rat plasma - testing additionally esterase dependent hydrolysis. Incubation was carried out in a shaking water bath at 37°C. The studied compounds were added to the prepared biological matrix and incubated for 120 min. Samples were collected 1, 5, 15, 30, 60, 90 and 120 min. after the beginning of incubation, by taking 50 µL of a sample to which 500 µL of acetonitrile cooled to -20°C was added to stop the hydrolysis reaction. The samples were cooled for 20 minutes at 4°C in order to precipitate proteins and then centrifuged under the following conditions: 4°C, 15,000 x rpm, 15 min. The supernatant was transferred to separate chromatographic tubes and 5 µL was injected onto chromatographic column.
The analytical system used for determination of MNA and MNAF concentrations consisted of the UltiMate 3000 liquid chromatograph (Dionex, Thermo Scientific) and the Quantum Ultra TSQ mass spectrometer (Thermo Scientific). For chromatographic separation the Aquasil C18 (4.6 x 150 mm, 5 µm, Thermo Scientific) analytical column was used with isocratic mobile phase, a mixture of 0.1% formic acid in acetonitrile and 5mM ammonium formate (80: 20, v/v)) elution ,at the flow rate of 0,8 mL/min. The detection was performed in the selected reaction monitoring (SRM) mode in positive ionization, monitoring the following ion transitions: m/z 137 → 94 (CE=19V) for MNA, m/z 167 → 137 (CE10) for MNAF, m/z 140 → 97 (CE=19V) for MNA-d3 used as internal standard. The parameters of the ion source were as follows: gas pressure 30 psi (sheath gas) and 10 psi (auxiliary gas), ion spray voltage 4500V, H-ESI ison sourse vaporizer temperature 300°C, capillary temperature 300°C, pressure in the collision chamber 1.5 mTorr (argon).

**Q.** For “3-(Acetoxymethylcarbamoyl)-1-methylpyridinium iodide [C-2578]”, which “release of intermediate compound MNAF / rate of hydrolysis (property depending on structure)” value [1] is on record?
**A.** The value was “quick release of an intermediate compound MNAF”.

**Q.** Which “release of intermediate compound MNAF / rate of hydrolysis (property depending on structure)” value [1] does the source give for “3-(benzoyloxymethylcarbamoyl)-1-methylpyridinium iodide [C-2648]” here?
**A.** The value was “quick release of an intermediate compound MNAF”.

**Q.** Which “release of intermediate compound MNAF / rate of hydrolysis (property depending on structure)” value [1] does the source give for “3-(isobutanoyloxymethylcarbamoyl)-1-methylpyridinium iodide [C-2649]” here?
**A.** Its value is “quick release of an intermediate compound MNAF”.

**Q.** Which “hydrolysis of parent compound during plasma incubation” value [1] does the source give for “3-(methoxymethylcarbamoyl)-1-methylpyridinium iodide [C-2823]” here?
**A.** The value was “slow and slight hydrolysis”.

**Q.** What about the “release of intermediate compound MNAF / rate of hydrolysis (property depending on structure)” value [1] of the same substance?
**A.** Its value is “hydrolyse very slowly”.

**Q.** What about the “stability in PBS buffer” value [2] of the same substance?
**A.** Its value is “high stability”.

**Q.** And the “changes in concentrations of parent compound during incubation in PBS solution” value [2]?
**A.** The value was “No changes in concentrations”.

**Q.** For “3-({[(3,4,5-trimethoxybenzoyl)oxy]methyl}carbamoyl)-1 methylpyridinium iodide [C-2942]”, which “release of intermediate compound MNAF / rate of hydrolysis (property depending on structure)” value [1] is on record?
**A.** The value was “quick release of an intermediate compound MNAF”.

**Q.** For “3-[(2,2-dimethylpropionyl oxymethyl)carbamoyl]-1-methylpyridinium iodide [C-2647]”, which “release of intermediate compound MNAF / rate of hydrolysis (property depending on structure)” value [1] is on record?
**A.** The value was “quick release of an intermediate compound MNAF”.

**Q.** For “3-[(adamanthan-1-carbonyl oxymethyl)carbamoyl]-1-methylpyridinium iodide [C-2808]”, which “hydrolysis of parent compound during plasma incubation” value [1] is on record?
**A.** The value was “slow and slight hydrolysis”.

**Q.** What about the “release of intermediate compound MNAF / rate of hydrolysis (property depending on structure)” value [1] of the same substance?
**A.** The value was “hydrolyse very slowly”.

**Q.** What about the “stability in PBS buffer” value [2] of the same substance?
**A.** The value was “high stability”.

**Q.** What about the “changes in concentrations of parent compound during incubation in PBS solution” value [2] of the same substance?
**A.** Its value is “No changes in concentrations”.

**Q.** Which “release of intermediate compound MNAF / rate of hydrolysis (property depending on structure)” value [1] does the source give for “iodide [(1-methylpyridine-1-ium-3-carbonyl)amino] methyl-1-methylcyclohexanecarboxylate [C-2959]” here?
**A.** Its value is “quick release of an intermediate compound MNAF”.
